According to patent US4329460A, “Uracil derivatives and production thereof” (Takeda Chemical Industries, Ltd., priority 1976, dated 1982):
Converted amounts (≈) assume the structure as drawn.

What was measured:
leukemia P 388 = assay: life-prolonging effect upon leukemia P 388 in mice; assay type: in vivo, BDF1 mice; conditions: intraperitoneal, median survival time treated/control
Experimental: (1) The procedure of a test on the life-prolonging effect upon leukemia P 388 in mice
One tenth ml of diluted ascitic fluid containing 1×10^5 cells was implanted in BDF1 mice weighing 18 to 25 g. A suspension of the test-compound is injected intraperitoneally at a constant rate of volume of 0.1 ml/10 g body weight. As the detailed experimental method, the Protocols for Screening Chemical Agents (Geran, R. I., Greenberg, N. H., Macdonald, M. M., Schumacher, A. M., and Abbott, B. J.: Protocols for Screening Chemical Agents and Natural Products against Animal Tumors and Other Biological Systems. Cancer Chemotherapy Rept., 3 (Part 3) 7, 1972) is adopted.
The results are recorded in compliance to the T/C % value calculated on the basis of the median survival time of treated to control animals.

KB cells = assay: Inhibition of KB cell multiplication; assay type: cell-based; conditions: Homo sapiens, 72 h, cell count on 4th day after seeding, read-out: ED50, inhibition of cell growth
Experimental: (1) Inhibition of KB cell multiplication
2×10^4 cells were suspended in 1 ml of Eagle's Minimal Essential Medium (MEM)+10% fetal calf serum (MEM.10 Fcs) and seeded in a glass dish (d=1.8 cm) containing a round coverslip (d=1.5 cm).
On the first day after seeding, three coverslips (per test group) were taken out and transferred to a single glass dish (d=4.5 cm) holding 5 ml of MEM.10 Fcs containing a verying concentration of the compound. On the 4th day after seeding, the number of cells per coverslip (3 slips for each concentration level) was determined with a Coulter counter. The result was expressed in the concentration of the drug giving a cell count of 50% (ED50) with the average number of cells for the control (not medicated) group on the 4th day being taken as 100%.

BAV3-infected C34 cells = assay: Inhibition of the induction of cell multiplication in BAV3-infected C34 cells; assay type: cell-based; conditions: Mus musculus, 96 h, (V-M) difference on 6th day after seeding, read-out: ED50, inhibition of cell growth
Experimental: (2) Inhibition of the induction of cell multiplication in BAV3-infected C34 cells
1×10^5 cells were suspended in 1 ml of Eagle's MEM+10% fetal calf serum (MEM.10 Fcs) and seeded in a glass dish (d=1.8 cm) containing a round coverslip (d=1.5 cm).
On the 2nd day after seeding, infection (37° C., 120 min.) (mock-infection or virus infection; in the case of the latter, multiplicity of infection per cell=100-200 PFU/cell) was carried out. After this operation, one test group (3 coverslips) was taken out and transferred to a glass dish (d=4.5 cm) holding 5 ml of MEM.2 Fcs containing each concentration of compound.
On the 6th day after seeding, the number of cells per coverslip was determined with a Coulter counter. For each experimental group, the difference in all members between virus-infected cells (V) and mock-infected cells (M) was calculated. The result was expressed in the concentration of the drug giving a (V-M) value of 50% (ED50) for the control (not medicated) group as 100%.

AC cells = assay: Inhibition of AC cell multiplication; assay type: cell-based; conditions: Rattus norvegicus, 72 h, cell count on 3rd day following replacement of medium, read-out: ED50, inhibition of cell growth
Experimental: (3) Inhibition of Ac cell multiplication
1×10^5 AC cells (2 ml of Eagle's MEM, with 10% fetal calf serum were seeded in a Falcon dish (in. diam. 3.5 cm). On the 24th hour, replacement was made with the above culture medium containing a varying concentration of drug. The number of cells was determined on the 3rd day following the replacement of medium. The pharmacologic effect was expressed in ED50 (the concentration of the drug giving a cell count of 50% for the treated group with the number of cells for the control group being taken as 100%.

## CCOC(=O)C1(F)C(=O)NC(=O)NC1OCC (centres unmarked) [ethyl 5-fluoro-6-ethoxy-1,2,3,4,5,6-hexahydro-2,4-dioxopyrimidine-5-carboxylate]
Leukemia P 388; 50 mg/kg/day
  T/C(%): 130%
Leukemia P 388; 100 mg/kg/day
  T/C(%): 143%
Leukemia P 388; 200 mg/kg/day
  T/C(%): 160%
KB cells
  IC50: 2.8 µg/mL (≈ 11.3 µM)
BAV3-infected C34 cells
  IC50: 0.023 µg/mL (≈ 0.0927 µM)

## COC(=O)C1(F)C(=O)NC(=O)NC1OC (centres unmarked) [methyl 5-fluoro-6-methoxy-1,2,3,4,5,6-hexahydro-2,4-dioxopyrimidine-5-carboxylate]
Leukemia P 388; 50 mg/kg/day
  T/C(%): 208%
Leukemia P 388; 100 mg/kg/day
  T/C(%): 217%
Leukemia P 388; 200 mg/kg/day
  T/C(%): 243%
KB cells
  IC50: 3 µg/mL (≈ 13.6 µM)
BAV3-infected C34 cells
  IC50: 0.023 µg/mL (≈ 0.104 µM)
AC cells
  IC50: 0.12 µg/mL (≈ 0.545 µM)
